# Assay results as given in patent US12655175B2, “C17, C20, and C21 substituted neuroactive steroids and their methods of use” (Sage Therapeutics, LLC, priority 2016, dated 2026).
# pIC50: −log10 of the molar value.
# Target: GABAA receptor
# Test: Steroid inhibition of [35S]-TBPS binding
# Settings: rat brain cortical membranes, 3 nM [35S]-TBPS, in the presence of 5 mM GABA
# Experimental: Steroid Inhibition of TBPS Binding
# Briefly, cortices are rapidly removed following decapitation of carbon dioxide-anesthetized Sprague-Dawley rats ([…]). The cortices are homogenized in 10 volumes of ice-cold 0.32 M sucrose using a glass/teflon homogenizer and centrifuged at 1500×g for 10 min at 4° C. The resultant supernatants are centrifuged at 10,000×g for 20 min at 4° C. to obtain the P2 pellets. The P2 pellets are resuspended in 200 mM NaCl/50 mM Na—K phosphate pH 7.4 buffer and centrifuged at 10,000×g for 10 min at 4° C. This washing procedure is repeated twice and the pellets are resuspended in 10 volumes of buffer. Aliquots ([…]) of the membrane suspensions are incubated with 3 nM [^35S]-TBPS and […] aliquots of test drug dissolved in dimethyl sulfoxide (DMSO) (final 0.5%) in the presence of 5 mM GABA. The incubation is brought to a final volume of 1.0 mL with buffer. […] Following a 90 min incubation at room temp, the assays are terminated by filtration through glass fiber filters (Schleicher and Schuell No. 32) using a cell harvester (Brandel) and rinsed three times with ice-cold buffer. Filter bound radioactivity is measured by liquid scintillation spectrometry. Non-linear curve fitting of the overall data for each drug averaged for each concentration is done using Prism (GraphPad).
# Various compounds are or can be screened to determine their potential as modulators of [^35S]-TBPS binding in vitro. These assays are or can be performed in accordance with the above discussed procedures.
row,SMILES,pIC50
1,C[C@@]1(O)CC[C@H]2[C@H](CC[C@@H]3[C@@H]2CC[C@]2(C)[C@@H](c4ccncc4)CC[C@@H]32)C1 [Compound 103],7.30 to 8.00
2,C[C@@]1(O)CC[C@H]2[C@H](CC[C@@H]3[C@@H]2CC[C@]2(C)[C@@H](C4CCOCC4)CC[C@@H]32)C1 [Compound 107],< 6.30
3,CCOC[C@@]1(O)CC[C@H]2[C@H](CC[C@@H]3[C@@H]2CC[C@]2(C)[C@@H](C(=O)N(C)[C@@H](CC)c4ccc(F)cc4)CC[C@@H]32)C1 [Compound 57],6.30 to 7.00
4,C[C@@]1(O)CC[C@H]2[C@H](CC[C@@H]3[C@@H]2CC[C@]2(C)[C@@H](C(=O)NCc4ccccc4)CC[C@@H]32)C1 [Compound 1],7.00 to 7.30
5,CN(CC(=O)[C@H]1CC[C@H]2[C@@H]3CC[C@H]4C[C@@](O)(C(F)(F)F)CC[C@]4(C)[C@H]3CC[C@]12C)c1ccccc1 [Compound 74],< 6.30
6,C[C@@]1(O)CC[C@H]2[C@H](CC[C@@H]3[C@@H]2CC[C@]2(C)[C@@H](C(=O)CNc4ccc(F)cc4)CC[C@@H]32)C1 [Compound 40],> 8.00
7,C[C@@]1(O)CC[C@@]2(C)[C@@H](CC[C@@H]3[C@@H]2CC[C@]2(C)[C@@H](OCc4ccccc4)CC[C@@H]32)C1 [Compound 112],< 6.30
8,C[C@@]1(O)CC[C@H]2[C@H](CC[C@@H]3[C@@H]2CC[C@]2(C)[C@@H](C(=O)CNc4ccccc4)CC[C@@H]32)C1 [Compound 38],> 8.00
9,CN(Cc1cccnc1)C(=O)[C@H]1CC[C@H]2[C@@H]3CC[C@@H]4C[C@](C)(O)CC[C@@H]4[C@H]3CC[C@]12C [Compound 16],6.30 to 7.00
10,CCN(CC)C(=O)[C@H]1CC[C@H]2[C@@H]3CC[C@@H]4C[C@](C)(O)CC[C@@H]4[C@H]3CC[C@]12C [Compound 2],6.30 to 7.00
11,COC[C@]12CC[C@@](C)(O)C[C@H]1CC[C@H]1[C@@H]3CC[C@H](C(=O)CN(C)c4ccccc4)[C@@]3(C)CC[C@@H]12 [Compound 75],7.30 to 8.00
12,C[C@@]1(O)CC[C@H]2[C@H](CC[C@@H]3[C@@H]2CC[C@]2(C)[C@@H](C(=O)CNc4cccc(F)c4)CC[C@@H]32)C1 [Compound 41],> 8.00
13,CCOC[C@@]1(O)CC[C@H]2[C@H](CC[C@@H]3[C@@H]2CC[C@]2(C)[C@@H](C(=O)N(C)[C@H](CC)c4ccc(F)cc4)CC[C@@H]32)C1 [Compound 56],6.30 to 7.00
14,CCOC[C@@]1(O)CC[C@H]2[C@H](CC[C@@H]3[C@@H]2CC[C@]2(C)[C@@H](C(=O)N4CCC[C@H]4c4ncco4)CC[C@@H]32)C1 [Compound 55],< 6.30
15,C[C@@H](NC(=O)[C@H]1CC[C@H]2[C@@H]3CC[C@@H]4C[C@](C)(O)CC[C@@H]4[C@H]3CC[C@]12C)c1ccccc1 [Compound 20],6.30 to 7.00
16,CN([C@H]1CC[C@H]2[C@@H]3CC[C@H]4C[C@](C)(O)CC[C@]4(C)[C@H]3CC[C@]12C)S(C)(=O)=O [Compound 98],< 6.30
17,CN(Cc1ccccc1)C(=O)[C@H]1CC[C@H]2[C@@H]3CC[C@@H]4C[C@](C)(O)CC[C@@H]4[C@H]3CC[C@]12C [Compound 4],7.30 to 8.00
18,C[C@@]1(O)CC[C@H]2[C@H](CC[C@@H]3[C@@H]2CC[C@]2(C)[C@@H](C(=O)NC4CCOCC4)CC[C@@H]32)C1 [Compound 29],< 6.30
19,C[C@@]1(O)CC[C@H]2[C@H](CC[C@@H]3[C@@H]2CC[C@]2(C)[C@@H](C4CCCC4)CC[C@@H]32)C1 [Compound 109],< 6.30
20,C[C@@H]1CCCCN1C(=O)[C@H]1CC[C@H]2[C@@H]3CC[C@@H]4C[C@](C)(O)CC[C@@H]4[C@H]3CC[C@]12C [Compound 25],6.30 to 7.00
21,CN(CC(=O)[C@H]1CC[C@H]2[C@@H]3CC[C@@H]4C[C@](C)(O)CC[C@@H]4[C@H]3CC[C@]12C)c1ccc(F)cc1 [Compound 43],7.30 to 8.00
22,C[C@@]1(O)CC[C@H]2[C@H](CC[C@@H]3[C@@H]2CC[C@]2(C)[C@@H](C(=O)NC4CCCCC4)CC[C@@H]32)C1 [Compound 8],7.00 to 7.30
23,C[C@@]1(O)CC[C@H]2[C@H](CC[C@@H]3[C@@H]2CC[C@]2(C)[C@@H](c4ccccc4)CC[C@@H]32)C1 [Compound 101],6.30 to 7.00

row,SMILES,pIC50
1,"CC[C@H](NC(=O)[C@H]1CC[C@H]2[C@@H]3CC[C@@H]4C[C@](C)(O)CC[C@@H]4[C@H]3CC[C@]12C)c1ccc(F)cc1 (single isomer, unassigned) [Compound 33]",6.30 to 7.00
2,CC1(O)CC[C@H]2[C@@H]3CC[C@@H]4C[C@](C)(O)CC[C@@H]4[C@H]3CC[C@@]21C (stereo partly drawn) [Compound 126],< 6.30
3,CCOC[C@@]1(O)CC[C@H]2[C@H](CC[C@@H]3[C@@H]2CC[C@]2(C)[C@@H](C(=O)N(C)[C@H](C)c4ccc(C#N)cc4)CC[C@@H]32)C1 [Compound 49],7.00 to 7.30
4,C[C@@]1(O)CC[C@H]2[C@H](CC[C@@H]3[C@@H]2CC[C@]2(C)[C@@H](C(=O)NCc4ccccn4)CC[C@@H]32)C1 [Compound 15],6.30 to 7.00
5,CN(CC(=O)[C@H]1CC[C@H]2[C@@H]3CC[C@@H]4C[C@](C)(O)CC[C@@H]4[C@H]3CC[C@]12C)c1cccc(F)c1 [Compound 42],7.30 to 8.00
6,CN(CC1CCOCC1)C(=O)[C@H]1CC[C@H]2[C@@H]3CC[C@@H]4C[C@](C)(O)CC[C@@H]4[C@H]3CC[C@]12C [Compound 14],< 6.30
7,C[C@@]1(O)CC[C@H]2[C@H](CC[C@@H]3[C@@H]2CC[C@]2(C)[C@@H](c4ccccn4)CC[C@@H]32)C1 [Compound 108],6.30 to 7.00
8,CN(C(=O)[C@H]1CC[C@H]2[C@@H]3CC[C@@H]4C[C@](C)(O)CC[C@@H]4[C@H]3CC[C@]12C)C1CCCCC1 [Compound 9],6.30 to 7.00
9,CN(Cc1ccncc1)C(=O)[C@H]1CC[C@H]2[C@@H]3CC[C@@H]4C[C@](C)(O)CC[C@@H]4[C@H]3CC[C@]12C [Compound 13],6.30 to 7.00
10,COC[C@]12CC[C@](O)(C(F)(F)F)C[C@H]1CC[C@H]1[C@@H]3CC[C@H](C(=O)CNc4ccccc4)[C@@]3(C)CC[C@@H]12 [Compound 77],7.30 to 8.00
11,C[C@@]1(O)CC[C@@]2(C)[C@@H](CC[C@@H]3[C@@H]2CC[C@]2(C)[C@@H](NCc4ccccc4)CC[C@@H]32)C1 [Compound 92],< 6.30
12,C[C@H](c1ccccc1)N(C)C(=O)[C@H]1CC[C@H]2[C@@H]3CC[C@@H]4C[C@](C)(O)CC[C@@H]4[C@H]3CC[C@]12C [Compound 32],7.30 to 8.00
13,CN(Cc1ccccn1)C(=O)[C@H]1CC[C@H]2[C@@H]3CC[C@@H]4C[C@](C)(O)CC[C@@H]4[C@H]3CC[C@]12C [Compound 22],< 6.30
14,CN(CC1CCCCC1)C(=O)[C@H]1CC[C@H]2[C@@H]3CC[C@@H]4C[C@](C)(O)CC[C@@H]4[C@H]3CC[C@]12C [Compound 26],6.30 to 7.00
15,"CC[C@@H](NC(=O)[C@H]1CC[C@H]2[C@@H]3CC[C@@H]4C[C@](C)(O)CC[C@@H]4[C@H]3CC[C@]12C)c1ccc(F)cc1 (single isomer, unassigned) [Compound 34]",6.30 to 7.00
16,CCOC[C@]12CC[C@@](C)(O)C[C@@H]1CC[C@H]1[C@@H]3CC[C@H](C(=O)CN(C)c4ccccc4)[C@@]3(C)CC[C@@H]12 [Compound 65],6.30 to 7.00
17,C[C@@H](c1ccccc1)N(C)C(=O)[C@H]1CC[C@H]2[C@@H]3CC[C@@H]4C[C@](C)(O)CC[C@@H]4[C@H]3CC[C@]12C [Compound 21],7.30 to 8.00
18,C[C@@]1(O)CC[C@H]2[C@H](CC[C@@H]3[C@@H]2CC[C@]2(C)[C@@H](C(=O)NCC4CCCCC4)CC[C@@H]32)C1 [Compound 17],6.30 to 7.00
19,COC[C@]12CC[C@](O)(C(F)(F)F)C[C@H]1CC[C@H]1[C@@H]3CC[C@H](C(=O)NC4CCCCC4)[C@@]3(C)CC[C@@H]12 [Compound 80],< 6.30
20,C[C@]12CC[C@](O)(C(F)(F)F)C[C@@H]1CC[C@@H]1[C@@H]2CC[C@]2(C)[C@@H](C(=O)CNc3ccccc3)CC[C@@H]12 [Compound 73],7.00 to 7.30
21,C[C@@]1(O)CC[C@H]2[C@H](CC[C@@H]3[C@@H]2CC[C@]2(C)[C@@H](C(=O)N4CCCOCC4)CC[C@@H]32)C1 [Compound 6],< 6.30
22,C[C@@]1(O)CC[C@@]2(C)[C@@H](CC[C@@H]3[C@@H]2CC[C@]2(C)[C@@H](Nc4ccccc4)CC[C@@H]32)C1 [Compound 87],6.30 to 7.00
